Measured values: PubChem BioAssay AID743505 (Broad Institute, 2014)
Calls of active or inactive are those of the source.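 Rule for the calls: active = dose curve with falling signal and an AC50 no higher than twice the top valid tested dose; inconclusive = flat curve with 30 to 70% inhibition, or a poor fit; inactive = rising signal, flat weak curve, or AC50 over that limit.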

Molecular target: Melanocortin receptor 4 (Homo sapiens) (UniProt P32245)
Experiment: MC4R antagonists in CRE-luciferase reporter cells, dose response, counter-screen for LGR2 antagonist project, cell-based, HEK293, luminescence, dry powder (AID 743505)
Details: antagonist mode; for activity change, negative = inhibition: at 35 µM (top of the series)

Sequence of Melanocortin receptor 4 (Homo sapiens) (P32245 whole entry, looked up): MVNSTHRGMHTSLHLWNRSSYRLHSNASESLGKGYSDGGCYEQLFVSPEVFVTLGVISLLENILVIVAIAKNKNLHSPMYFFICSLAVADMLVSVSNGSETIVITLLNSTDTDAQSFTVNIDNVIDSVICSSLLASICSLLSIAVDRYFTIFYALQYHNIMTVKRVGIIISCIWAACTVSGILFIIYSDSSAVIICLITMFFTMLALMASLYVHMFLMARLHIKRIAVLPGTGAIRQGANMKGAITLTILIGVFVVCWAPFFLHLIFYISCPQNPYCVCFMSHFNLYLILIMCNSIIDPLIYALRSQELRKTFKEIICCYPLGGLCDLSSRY

| Compound | activity change, negative = inhibition | AC50 |
| --- | --- | --- |
| C[C@H](CO)N1C[C@H](C)[C@H](CN(C)C(=O)Nc2ccc(F)cc2)OCCCC[C@H](C)Oc2ccc(NC(=O)C3CCCCCC3)cc2C1=O | inactive | – |
| C[C@@H]1CN([C@@H](C)CO)C(=O)c2cc(NC(=O)C3CCCCC3)ccc2O[C@@H](C)CCCCO[C@H]1CN(C)C(=O)Nc1cccc2ccccc12 | inactive | – |
| C[C@H]1CCCCO[C@@H](CN(C)S(=O)(=O)c2ccc(Cl)cc2)[C@@H](C)CN([C@@H](C)CO)C(=O)c2cc(NC(=O)NC3CCCCC3)ccc2O1 | – | > 70 µM (inactive) |
| C[C@H](CO)N1C[C@H](C)[C@H](CN(C)C(=O)Nc2ccc(F)cc2)OCCCC[C@H](C)Oc2ccc(NC(=O)C3CCCCC3)cc2C1=O | inactive | – |
| C[C@H](CO)N1C[C@H](C)[C@H](CN(C)C(=O)Nc2ccc3c(c2)OCO3)OCCCC[C@H](C)Oc2ccc(NC(=O)C3CCCCC3)cc2C1=O | inactive | – |
| C[C@H]1CCCCO[C@@H](CN(C)C(=O)Nc2cccc3ccccc23)[C@@H](C)CN([C@@H](C)CO)C(=O)c2cc(NC(=O)C3CCCCC3)ccc2O1 | inactive | – |
| C[C@H](CO)N1C[C@H](C)[C@H](CN(C)C(=O)Nc2ccccc2F)OCCCC[C@H](C)Oc2ccc(NC(=O)C3CCCCC3)cc2C1=O | inactive | – |
| C[C@H](CO)N1C[C@H](C)[C@H](CN(C)C(=O)Nc2ccc(F)cc2)OCCCC[C@H](C)Oc2ccc(NC(=O)C3CC3)cc2C1=O | inactive | – |
| C[C@H](CO)N1C[C@H](C)[C@H](CN(C)C(=O)Nc2ccccc2)OCCCC[C@H](C)Oc2ccc(NC(=O)Nc3ccccc3)cc2C1=O | inactive | – |
| C[C@H](CO)N1C[C@H](C)[C@H](CN(C)C(=O)Nc2ccccc2)OCCCC[C@H](C)Oc2ccc(NC(=O)NC3CCCCC3)cc2C1=O | inactive | – |
| C[C@H]1CCCCO[C@@H](CN(C)C(=O)Nc2ccccc2)[C@@H](C)CN([C@@H](C)CO)C(=O)c2cc(NC(=O)NC3CCCCC3)ccc2O1 | inactive | – |
| CC(=O)Nc1ccc2c(c1)C(=O)N([C@H](C)CO)C[C@H](C)[C@H](CN(C)C(=O)Nc1ccc(F)cc1)OCCCC[C@H](C)O2 | inactive | – |
| C[C@H](CO)N1C[C@H](C)[C@H](CN(C)C(=O)Nc2cccc3ccccc23)OCCCC[C@H](C)Oc2ccc(NC(=O)C3CCCCC3)cc2C1=O | inactive | – |
| C[C@H](CO)N1C[C@H](C)[C@H](CN(C)C(=O)Nc2cccc3ccccc23)OCCCC[C@H](C)Oc2ccc(NC(=O)c3ccccc3)cc2C1=O | inactive | – |
| C[C@H]1CCCCO[C@@H](CN(C)C(=O)Nc2ccc3c(c2)OCO3)[C@@H](C)CN([C@@H](C)CO)C(=O)c2cc(NC(=O)NC3CCCCC3)ccc2O1 | inactive | – |
| C[C@H](CO)N1C[C@H](C)[C@H](CN(C)C(=O)Nc2ccc(F)cc2)OCCCC[C@H](C)Oc2ccc(NC(=O)NC3CCCCC3)cc2C1=O | inactive | – |
| CC(C)(C)c1ccc(-c2nc(-c3ccncc3)no2)cc1 | inactive | – |

| Compound | activity change, negative = inhibition | AC50 |
| --- | --- | --- |
| C[C@H](CO)N1C[C@H](C)[C@H](CN(C)C(=O)Nc2cccc3ccccc23)OCCCC[C@H](C)Oc2ccc(NC(=O)NC3CCCCC3)cc2C1=O | inactive | – |
| C[C@@H]1CCCCO[C@H](CN(C)C(=O)Nc2cccc3ccccc23)[C@@H](C)CN([C@H](C)CO)C(=O)c2cc(NC(=O)C3CCCCC3)ccc2O1 | – | > 70 µM (inactive) |
| C[C@H](CO)N1C[C@H](C)[C@H](CN(C)C(=O)Nc2ccc(C(F)(F)F)cc2)OCCCC[C@H](C)Oc2ccc(NC(=O)CCC(F)(F)F)cc2C1=O | inactive | – |
| C[C@H](CO)N1C[C@H](C)[C@@H](CN(C)C(=O)Nc2cccc3ccccc23)OCCCC[C@H](C)Oc2ccc(NC(=O)C3CCCCC3)cc2C1=O | inactive | – |
| C[C@H](CO)N1C[C@H](C)[C@H](CN(C)C(=O)Nc2ccc(C(F)(F)F)cc2)OCCCC[C@H](C)Oc2ccc(NC(=O)NC3CCCCC3)cc2C1=O | inactive | – |
| C[C@H](CO)N1C[C@H](C)[C@H](CN(C)C(=O)Nc2ccc(F)cc2)OCCCC[C@H](C)Oc2ccc(NC(=O)Nc3ccccc3)cc2C1=O | inactive | – |
| C[C@H](CO)N1C[C@H](C)[C@H](CN(C)C(=O)Nc2ccccc2)OCCCC[C@H](C)Oc2ccc(NC(=O)CCC(F)(F)F)cc2C1=O | inactive | – |
| C[C@H](CO)N1C[C@H](C)[C@H](CN(C)C(=O)Nc2cccc(F)c2)OCCCC[C@H](C)Oc2ccc(NC(=O)C3CCCCC3)cc2C1=O | inactive | – |
| Cc1ccc(NC(=O)N(C)C[C@@H]2OCCCC[C@H](C)Oc3ccc(NC(=O)C4CCCCC4)cc3C(=O)N([C@H](C)CO)C[C@@H]2C)cc1 | inactive | – |
| C[C@H](CO)N1C[C@H](C)[C@H](CN(C)C(=O)Nc2ccc(F)cc2)OCCCC[C@H](C)Oc2ccc(NC(=O)C3CCCC3)cc2C1=O | inactive | – |
| C[C@@H]1CCCCO[C@H](CN(C)C(=O)Nc2cccc3ccccc23)[C@@H](C)CN([C@@H](C)CO)C(=O)c2cc(NC(=O)C3CCCCC3)ccc2O1 | inactive | – |
| C[C@H]1CCCCO[C@@H](CN(C)C(=O)Nc2ccc(C(F)(F)F)cc2)[C@@H](C)CN([C@@H](C)CO)C(=O)c2cc(NC(=O)CCC(F)(F)F)ccc2O1 | inactive | – |
| C[C@H](CO)N1C[C@H](C)[C@H](CN(C)C(=O)Nc2ccc3c(c2)OCO3)OCCCC[C@H](C)Oc2ccc(NC(=O)NC3CCCCC3)cc2C1=O | inactive | – |
| C[C@H](CO)N1C[C@H](C)[C@H](CN(C)C(=O)Nc2ccc(F)cc2)OCCCC[C@H](C)Oc2ccc(NC(=O)C3CCC3)cc2C1=O | inactive | – |
| C[C@H]1CCCCO[C@@H](CN(C)C(=O)Nc2ccc(F)cc2)[C@@H](C)CN([C@@H](C)CO)C(=O)c2cc(NC(=O)C3CCCCC3)ccc2O1 | inactive | – |
| C[C@@H]1CCCCO[C@@H](CN(C)C(=O)Nc2cccc3ccccc23)[C@H](C)CN([C@H](C)CO)C(=O)c2cc(NC(=O)C3CCCCC3)ccc2O1 | – | 7.91 µM |

More lines, now with the values ahead:

| activity change, negative = inhibition | AC50 | Compound |
| --- | --- | --- |
| inactive | – | C[C@H](CO)N1C[C@H](C)[C@H](CN(C)C(=O)Nc2ccc(Cl)cc2)OCCCC[C@H](C)Oc2ccc(NC(=O)C3CCCCC3)cc2C1=O |
| inactive | – | C[C@H](CO)N1C[C@H](C)[C@H](CN(C)C(=O)Nc2ccc(F)cc2)OCCCC[C@H](C)Oc2ccc(NC(=O)C3CCOCC3)cc2C1=O |
| inactive | – | COc1ccc(S(=O)(=O)N(C)C[C@@H]2OCCCC[C@H](C)Oc3ccc(NS(=O)(=O)c4ccc(F)cc4)cc3C(=O)N([C@@H](C)CO)C[C@@H]2C)cc1 |
| inactive | – | C[C@@H]1CN([C@H](C)CO)C(=O)c2cc(NC(=O)C3CCCCC3)ccc2O[C@@H](C)CCCCO[C@@H]1CN(C)C(=O)Nc1cccc2ccccc12 |
| inactive | – | COc1ccc(NC(=O)N(C)C[C@@H]2OCCCC[C@H](C)Oc3ccc(NC(=O)C4CCCCC4)cc3C(=O)N([C@H](C)CO)C[C@@H]2C)cc1 |
| inactive | – | COc1ccc(NC(=O)N(C)C[C@@H]2OCCCC[C@H](C)Oc3ccc(NC(=O)NC4CCCCC4)cc3C(=O)N([C@H](C)CO)C[C@@H]2C)cc1 |
| inactive | – | C[C@@H]1CCCCO[C@H](CN(C)C(=O)Nc2cccc3ccccc23)[C@H](C)CN([C@H](C)CO)C(=O)c2cc(NC(=O)C3CCCCC3)ccc2O1 |
| inactive | – | C[C@H]1CCCCO[C@H](CN(C)C(=O)Nc2cccc3ccccc23)[C@@H](C)CN([C@@H](C)CO)C(=O)c2cc(NC(=O)C3CCCCC3)ccc2O1 |
| inactive | – | C[C@@H]1CN([C@H](C)CO)C(=O)c2cc(NC(=O)C3CCCCC3)ccc2O[C@@H](C)CCCCO[C@H]1CN(C)C(=O)Nc1cccc2ccccc12 |
| inactive | – | C[C@H](CO)N1C[C@H](C)[C@H](CN(C)C(=O)Nc2ccc(F)cc2)OCCCC[C@H](C)Oc2ccc(NC(=O)Nc3ccc(F)cc3)cc2C1=O |
| – | > 70 µM (inactive) | C[C@@H]1CCCCO[C@@H](CN(C)C(=O)Nc2cccc3ccccc23)[C@H](C)CN([C@@H](C)CO)C(=O)c2cc(NC(=O)C3CCCCC3)ccc2O1 |
| inactive | – | C[C@H](CO)N1C[C@H](C)[C@H](CN(C)C(=O)Nc2ccccc2)OCCCC[C@H](C)Oc2ccc(NC(=O)C3CCCCC3)cc2C1=O |
| inactive | – | C[C@@H]1CCCCO[C@H](CN(C)C(=O)Nc2cccc3ccccc23)[C@H](C)CN([C@@H](C)CO)C(=O)c2cc(NC(=O)C3CCCCC3)ccc2O1 |
| inactive | – | C[C@H](CO)N1C[C@H](C)[C@H](CN(C)C(=O)Nc2ccc3ccccc3c2)OCCCC[C@H](C)Oc2ccc(NC(=O)C3CCCCC3)cc2C1=O |
| inactive | – | C[C@H](CO)N1C[C@H](C)[C@H](CN(C)C(=O)Nc2ccccc2)OCCCC[C@H](C)Oc2ccc(NC(=O)Nc3ccc4c(c3)OCO4)cc2C1=O |
| inactive | – | C[C@H](CO)N1C[C@H](C)[C@H](CN(C)C(=O)Nc2cccc3ccccc23)OCCCC[C@H](C)Oc2ccc(NC(=O)CCC(F)(F)F)cc2C1=O |
| inactive | – | C[C@@H]1CN([C@@H](C)CO)C(=O)c2cc(NC(=O)C3CCCCC3)ccc2O[C@@H](C)CCCCO[C@@H]1CN(C)C(=O)Nc1cccc2ccccc12 |
| inactive | – | C[C@@H]1CCCCO[C@@H](CN(C)C(=O)Nc2cccc3ccccc23)[C@@H](C)CN([C@H](C)CO)C(=O)c2cc(NC(=O)C3CCCCC3)ccc2O1 |
